# Earlier results as cited in patent publication US20250312247A1, “OXYGEN GENERATING FACE MASKS” (DERMOQ, INC., priority 2018, published 2025).
# Settings: topically applied dissolved oxygen, transcutaneous
smiles,measurement,value
"O=O [dissolved oxygen, oxygen]",depth of penetration through human skin,> 700 μm
